Data taken from PMC5760710, “The evolution of substrate discrimination in macrolide antibiotic resistance enzymes” (Nature Communications, 2018).
In brackets after ≈: the same amount, converted by molar mass.

How the values were obtained:
[1] = system: T1, E. coli BW25113 ΔbamBΔtolC (vector); test: microbe, parasite or virus in culture; parameters: CLSI broth microdilution MIC in Mueller-Hinton broth; conditions: Escherichia coli, BW25113, 24 h
T1 construct: BW25113 ΔbamBΔtolC, empty vector
Method: (§1) mphB was codon optimized, synthetized as a gBlock (IDT) and cloned into pET28a with an N-terminal histidine tag. The codon optimized mphB sequence is in Supplementary Table 17. mphI was previously cloned into pET22b[36]. pGDP4 is a derivative of pET28a with the multiple-cloning site under the control of the constitutive lac promoter. mphI was subcloned into pGDP4 using the XbaI and XhoI restriction sites. E. coli was routinely cultured on LB-Lennox (Bioshop) at 37 °C overnight, and either 100 µg mL^−1 ampicillin or 50 µg mL^−1 kanamycin was used for plasmid selection. E. coli TOP10 (Invitrogen) was used for routine cloning experiments and susceptibility testing of mphs cloned into pGDP4. E. coli BL21(DE3) (Stratagene, USA)was used for protein overexpression experiments. E. coli BW25113 ΔbamBΔtolC is an antibiotic hypersensitive, and was used for susceptibility testing of Mphs cloning into pGDP4. Antibiotic susceptibility testing was performed according to the Clinical and Laboratory Standards Institute guidelines[74] for determining minimal inhibitory concentration (MIC) in 96-well plates (Sarstedt, Germany) in duplicate. MIC values were reproducible. A saline suspension of OD600 of 0.1 was made from 2–3 colonies of a fresh overnight, and diluted 1:200 into Mueller-Hinton Broth (BD Biosciences). […] Susceptibility assays were performed at least two independent times.

[2] = system: T2, E. coli BW25113 ΔbamBΔtolC; test: microbe, parasite or virus in culture; conditions: Escherichia coli, BW25113, 24 h; empty vector
T2 construct: BW25113 ΔbamBΔtolC empty vector pGDP4
Method: as §1

MphK = target: T3, MphK (Bacillus subtilis, UniProt P42242); parameters: PK/LDH-coupled continuous assay of macrolide phosphorylation; steady-state kinetics, NADH absorbance; conditions: substrate inhibition
T3 construct: full-length, His-tagged, expressed in E. coli BL21(DE3), Ni-NTA purified
Method: Steady-state kinetics for Mphs were measured using the continuous PK/LDH-coupled assay[27],[32],[36],[71]. Reactions were performed in 96-well plates (Nunc, Thermo Scientific) using Spectramax Plus384 (Molecular Devices) in duplicate. Individual reactions were 100 µL and contained 50 mM HEPES pH 7.5, 40 mM KCl, 10 mM MgCl2, 0.2 mM NADH, 3.5 mM PEP, and 4.8 U PK/LDH (pyruvate kinase/lactate dehydrogenase). […] For determining the Km for macrolides, GTP was maintained at 200 µM and macrolides were varied between 0.49 µM and 1000 µM. Enzyme efficiency varied considerably between substrates, and therefore some enzymes were used at different concentrations depending on the substrate in order to produce a linear range suitable for Km determination. These concentrations were as follows; MphB 140 nM (most substrates), MphB 36 nM (josamycin), MphI 45 nM (descladinose macrolides), MphI 1.44 µM (C3 cladinose macrolides), Azi_1.1 90 nM (all substrates), Ery_1 (all substrates), MphK 680 nM (all substrates), MphIS111R/T166E/P211L 90 nM (descladinose macrolides), MphIS111R/T166E/P211L 1.43 µM (C3 cladinose macrolides), MphIM40A/S111R/T166E 22 nM (descladinose macrolides), MphIM40A/S111R/T166E 430 nM (C3 cladinose macrolides), MphIS111R/T166E 22 nM (descladinose macrolides), MphIS111R/T166E 1.43 µM (C3 cladinose macrolides). Enzyme kinetics experiments were performed at least two independent times. […]

MphB = target: T4, MphB (Escherichia coli, UniProt A0A0H3EUF3); test: biochemical; parameters: PK/LDH-coupled continuous assay of macrolide phosphorylation; steady-state kinetics, NADH absorbance; conditions: substrate inhibition
T4 construct: codon-optimized gene, N-terminal His tag in pET28a, expressed in E. coli BL21(DE3), Ni-NTA purified
Method: Steady-state kinetics for Mphs were measured using the continuous PK/LDH-coupled assay[27],[32],[36],[71]. Reactions were performed in 96-well plates (Nunc, Thermo Scientific) using Spectramax Plus384 (Molecular Devices) in duplicate. Individual reactions were 100 µL and contained 50 mM HEPES pH 7.5, 40 mM KCl, 10 mM MgCl2, 0.2 mM NADH, 3.5 mM PEP, and 4.8 U PK/LDH (pyruvate kinase/lactate dehydrogenase). […] For determining the Km for macrolides, GTP was maintained at 200 µM and macrolides were varied between 0.49 µM and 1000 µM. Enzyme efficiency varied considerably between substrates, and therefore some enzymes were used at different concentrations depending on the substrate in order to produce a linear range suitable for Km determination. These concentrations were as follows; MphB 140 nM (most substrates), MphB 36 nM (josamycin), MphI 45 nM (descladinose macrolides), MphI 1.44 µM (C3 cladinose macrolides), Azi_1.1 90 nM (all substrates), Ery_1 (all substrates), MphK 680 nM (all substrates), MphIS111R/T166E/P211L 90 nM (descladinose macrolides), MphIS111R/T166E/P211L 1.43 µM (C3 cladinose macrolides), MphIM40A/S111R/T166E 22 nM (descladinose macrolides), MphIM40A/S111R/T166E 430 nM (C3 cladinose macrolides), MphIS111R/T166E 22 nM (descladinose macrolides), MphIS111R/T166E 1.43 µM (C3 cladinose macrolides). Enzyme kinetics experiments were performed at least two independent times. Steady-state kinetics of Mphs

T3 sequence (P42242 whole entry): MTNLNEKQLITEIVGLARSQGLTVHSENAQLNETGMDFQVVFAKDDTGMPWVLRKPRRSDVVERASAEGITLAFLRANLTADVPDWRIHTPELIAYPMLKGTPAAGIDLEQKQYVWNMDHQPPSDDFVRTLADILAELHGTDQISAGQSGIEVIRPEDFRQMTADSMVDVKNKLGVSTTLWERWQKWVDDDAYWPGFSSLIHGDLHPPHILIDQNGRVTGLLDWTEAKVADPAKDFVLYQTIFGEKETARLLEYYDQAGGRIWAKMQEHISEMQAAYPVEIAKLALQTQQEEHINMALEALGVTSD

SMILES	MIC [1] [µg/mL]	MIC [2] [µg/mL]	Ki (MphK) [µM]	Ki (MphB) [µM]
CO[C@@H]1[C@@H](O[C@@H]2O[C@H](C)[C@@H](O[C@H]3C[C@@](C)(O)[C@@H](OC(=O)CC(C)C)[C@H](C)O3)[C@H](N(C)C)[C@H]2O)[C@@H](CC=O)C[C@@H](C)[C@@H](O)/C=C/C=C/C[C@@H](C)OC(=O)C[C@H]1OC(C)=O [josamycin]	2 to 4 (≈ 2.42 to 4.83 µM)	–	–	–
CO[C@@H]1[C@@H](O[C@@H]2O[C@H](C)[C@@H](O[C@H]3C[C@@](C)(O)[C@@H](O)[C@H](C)O3)[C@H](N(C)C)[C@H]2O)[C@@H](CC=O)C[C@@H](C)[C@@H](O[C@H]2CC[C@H](N(C)C)[C@@H](C)O2)/C=C/C=C/C[C@@H](C)OC(=O)C[C@H]1O [Spiramycin]	–	2 (≈ 2.37 µM)	750 ± 160	39 ± 16
